In US20240342185A1, “SMALL MOLECULES INHIBITORS OF CYCLIC GMP-AMP SYNTHASE (cGAS)” (priority 2021, published 2024):
Read-outs that look alike come from different tables or passages of the source.

Key:
THP-1 ISG Luc cells = assay: cells; assay type: cell-based; conditions: Homo sapiens, THP-1, 48 h, read-out: CTG IC50
[1] = tested on: TREX1 KO THP-1 ISG Luc cells; assay: cells; assay type: cell-based; conditions: Homo sapiens, 48 h, read-out: ISRE-Luc IC50
cGAS = cGAS (Homo sapiens, UniProt Q8N884); assay: cell-based
[2] = tested on: TREX1 KO THP-1 ISG Luc cells; assay: cells; assay type: cell-based; conditions: Homo sapiens, cell viability, 48 h, read-out: CTG IC50

cGAS, sequence (Q8N884 whole entry): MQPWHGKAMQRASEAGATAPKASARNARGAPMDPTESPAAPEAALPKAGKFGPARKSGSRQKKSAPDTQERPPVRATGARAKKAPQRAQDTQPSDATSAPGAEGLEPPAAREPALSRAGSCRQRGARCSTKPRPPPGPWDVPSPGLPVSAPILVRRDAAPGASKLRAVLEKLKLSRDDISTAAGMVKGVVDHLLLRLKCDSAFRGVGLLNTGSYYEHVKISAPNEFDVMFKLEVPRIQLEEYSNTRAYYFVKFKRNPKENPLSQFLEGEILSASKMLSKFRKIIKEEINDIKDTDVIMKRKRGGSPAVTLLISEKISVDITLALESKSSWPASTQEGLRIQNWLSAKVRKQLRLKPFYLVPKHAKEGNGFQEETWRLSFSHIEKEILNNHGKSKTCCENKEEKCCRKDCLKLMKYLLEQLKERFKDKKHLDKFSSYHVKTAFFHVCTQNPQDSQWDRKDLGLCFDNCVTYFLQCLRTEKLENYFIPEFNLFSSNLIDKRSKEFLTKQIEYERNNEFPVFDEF

`Nc1cc(C2CCN(C(=O)c3cc4ccccc4[nH]3)CC2)no1` [Compound 2, (4-(5-aminoisoxazol-3-yl)piperidin-1-yl)(1H-indol-2-yl)methanone] was tested, and the IC50 (THP-1 ISG Luc cells) was greater than 10000 nM, the IC50 [1] was 950 nM and the IC50 (cGAS) was 890 nM. For the same compound, the IC50 [2] was greater than 10000 nM.
